The structures appear in SMILES notation. Read-outs that look alike come from different tables or passages of the source.

The IC50 is the point on the concentration scale where inhibition reaches its midpoint. By inhibition is commonly meant the share of the control response that was lost under treatment.

The subject of assay [1] is CCHE-45 cells (primary choroid plexus carcinoma). Kind of assay: Cytotoxicity assay using xCELLigence system. It is filed as cell-based. The note with it: for IC50: xCELLigence, 96 h exposure, mean of three replicates, read-out: CCHE-45 IC50 (µM)±SEM. The protocol:
Established primary Choroid plexus carcinoma (CCHE-45) were cultured as previously described, in RPMI-1640 (Lonza, BE-12-702F) supplemented with 10% Fetal Bovine Serum (FBS, Gibco, 12483–020) and 100 U/ml penicillin and 100 µg/ml streptomycin (Lonza, DE17-602F). Cells were maintained at 37 °C in a 5% CO2 humidified atmosphere.
Cytotoxicity assay by the xCELLigence system was performed using RTCA xCELLigence DP system (ACEA Biosciences, Inc., San Diego, CA, USA) as per manufacturer’s instructions https://www.aceabio.com/products/rtca-dp/, https://www.aceabio.com/products/rtca-sp[65–68]. In brief, after setting up the instruments and blanking the wells with media, CCHE-45 cells were seeded into the 96 well E-plate (ACEA Biosciences) with a density of 20,000 cells/well. Attachment and growth of the cells were monitored every 1 h. Approximately 24 h after seeding, when the cells were in the log growth phase, the cells were exposed to a range of test compound 10a concentrations (3.125, 6.25, 12.5, 25, 50, 100, 200, 400) µM for 96 h. Controls received either medium alone, or medium + DMSO with a final concentration below of 0.5%. For each concentration, duplicates were tested. Experiments were conducted in three biological repeats. Results were analyzed using the RTCA software (Version 2.0). Data was exported and average IC50 value was analyzed.
• Based on previous pilot experiment, the highest SK114 conc. (100µM)
72hrs, thus this experiment was performed with higher concentration
• Cells were incubated with the drug for 96hrs
• Experiment was done in technical duplicates

The subject of assay [2] is acetylated α-tubulin in HL60 cells. The assay is described as follows: Western blot analysis of acetylated α-tubulin in HL60 cells. It is filed as cell-based. The note with it: 24 h. The protocol:
CCHE-45 cells were treated with 100 µM of test compound for 24 h. HL60 cell line (a kind gift from Professor Azza Kamel from the National Cancer Institute, Cairo University); and is cultured in RPMI-1640 (Lonza, BE-12-702F) supplemented with 10% Fetal Bovine Serum (FBS, Gibco, 12483–020) and 100 U/ml penicillin and 100 µg/ml streptomycin (Lonza, DE17-602F), has also been treated with different concentrations of 10a in twofold serial dilutions for 24 h. Proteins were extracted from CCHE-45 cells using RIPA Lysis and Extraction Buffer (ThermoScientific, cat. No: 89901) containing 100x Halt Protease and […] Inhibitor Cocktail (ThermoScientific, cat. No. 78444). Followed by protein quantification using Bradford Reagent (Pierce Coomassie Plus (Bradford) Assay Reagent) (ThermoScientific, cat. No. 23238). A total of 50 µg proteins were loaded on a 10% SDS page using 30% Acrylamide/Bisacrylamide 19:1(Serva, cat. No. 10679.01) then transferred by semidry transfer method using Bio-Rad Trans-Blot Turbo transfer system on PVDF Transfer Membrane (ThermoScientific, cat. No. 88518). The membranes were incubated overnight at 4 °C in the primary antibodies Mouse monoclonal Anti-Beta Actin antibody (1:100, abcam, ab8224) and Mouse monoclonal Anti-acetylated α Tubulin (1:200, Santa Cruz Biotechnology, sc-23950). […]
(In general: In western blotting, separated proteins are transferred to a membrane and probed.)

The next assay has as its target human HDAC4 (Homo sapiens, UniProt P56524). The assay is described as follows: HDAC4 inhibitor enzymatic assay, % inhibition at fixed concentration. The note with it: read-out: %inhibition of HDACs at 10µM of test compound HDAC4.
Another assay deals with human HDAC9 (Homo sapiens, UniProt Q9UKV0). The assay is described as follows: HDAC9 inhibitor enzymatic assay, % inhibition at fixed concentration. The note with it: read-out: %inhibition of HDACs at 10µM of test compound HDAC9.
Another assay deals with T1, human HDAC10 (Homo sapiens, UniProt Q969S8).
T1 sequence (Q969S8 1-669): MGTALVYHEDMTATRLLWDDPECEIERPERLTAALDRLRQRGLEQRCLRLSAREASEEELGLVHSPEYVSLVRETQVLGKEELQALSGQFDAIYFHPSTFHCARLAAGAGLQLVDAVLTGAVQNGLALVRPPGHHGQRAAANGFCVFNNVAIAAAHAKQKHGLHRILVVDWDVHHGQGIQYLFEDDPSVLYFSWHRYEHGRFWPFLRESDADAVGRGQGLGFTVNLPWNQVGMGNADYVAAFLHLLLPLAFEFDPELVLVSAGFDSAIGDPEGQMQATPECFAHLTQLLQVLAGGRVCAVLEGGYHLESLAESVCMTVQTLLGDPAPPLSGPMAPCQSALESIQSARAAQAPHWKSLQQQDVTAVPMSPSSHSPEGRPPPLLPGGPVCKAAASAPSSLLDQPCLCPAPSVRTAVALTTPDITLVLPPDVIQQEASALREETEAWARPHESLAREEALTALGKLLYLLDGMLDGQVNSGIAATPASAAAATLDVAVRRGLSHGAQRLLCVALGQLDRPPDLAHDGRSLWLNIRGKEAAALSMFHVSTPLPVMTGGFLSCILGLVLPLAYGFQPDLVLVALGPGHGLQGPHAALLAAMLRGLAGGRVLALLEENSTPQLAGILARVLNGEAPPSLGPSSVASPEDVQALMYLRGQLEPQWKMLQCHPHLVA
The assay is described as follows: HDAC10 inhibitor enzymatic assay, % inhibition at fixed concentration. Particulars: read-out: %inhibition of HDACs at 10µM of test compound HDAC10.

Chain of human HDAC9 (Q9UKV0 1-1066 isoform Q9UKV0-5): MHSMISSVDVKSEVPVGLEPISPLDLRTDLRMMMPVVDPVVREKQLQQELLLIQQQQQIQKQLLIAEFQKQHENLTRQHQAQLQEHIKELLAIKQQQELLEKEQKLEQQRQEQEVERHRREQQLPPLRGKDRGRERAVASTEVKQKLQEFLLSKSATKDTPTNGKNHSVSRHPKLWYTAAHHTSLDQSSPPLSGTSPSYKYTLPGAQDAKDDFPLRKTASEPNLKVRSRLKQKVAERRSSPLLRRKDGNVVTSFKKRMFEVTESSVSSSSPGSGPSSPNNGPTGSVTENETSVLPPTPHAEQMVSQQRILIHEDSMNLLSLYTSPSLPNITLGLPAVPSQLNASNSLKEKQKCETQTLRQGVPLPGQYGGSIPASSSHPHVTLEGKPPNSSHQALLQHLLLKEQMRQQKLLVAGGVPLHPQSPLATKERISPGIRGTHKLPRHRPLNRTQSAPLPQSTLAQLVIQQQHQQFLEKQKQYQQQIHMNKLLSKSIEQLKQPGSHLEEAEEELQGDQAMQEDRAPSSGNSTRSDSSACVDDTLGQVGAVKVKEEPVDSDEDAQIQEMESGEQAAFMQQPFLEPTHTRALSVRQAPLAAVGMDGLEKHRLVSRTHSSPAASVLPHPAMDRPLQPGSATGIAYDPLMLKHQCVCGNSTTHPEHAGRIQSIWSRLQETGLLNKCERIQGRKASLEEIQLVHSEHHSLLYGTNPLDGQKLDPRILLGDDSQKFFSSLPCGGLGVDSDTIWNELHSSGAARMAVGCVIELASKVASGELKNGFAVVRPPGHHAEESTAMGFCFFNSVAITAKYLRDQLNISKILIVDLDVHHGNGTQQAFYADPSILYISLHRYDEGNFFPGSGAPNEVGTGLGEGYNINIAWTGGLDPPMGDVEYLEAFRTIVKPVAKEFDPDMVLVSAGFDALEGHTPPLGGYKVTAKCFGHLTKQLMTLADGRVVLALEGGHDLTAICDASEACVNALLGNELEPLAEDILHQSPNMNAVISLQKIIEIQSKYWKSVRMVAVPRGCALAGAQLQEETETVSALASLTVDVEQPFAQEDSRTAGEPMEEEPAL
Chain of human HDAC4 (P56524 627-1084 limits assumed): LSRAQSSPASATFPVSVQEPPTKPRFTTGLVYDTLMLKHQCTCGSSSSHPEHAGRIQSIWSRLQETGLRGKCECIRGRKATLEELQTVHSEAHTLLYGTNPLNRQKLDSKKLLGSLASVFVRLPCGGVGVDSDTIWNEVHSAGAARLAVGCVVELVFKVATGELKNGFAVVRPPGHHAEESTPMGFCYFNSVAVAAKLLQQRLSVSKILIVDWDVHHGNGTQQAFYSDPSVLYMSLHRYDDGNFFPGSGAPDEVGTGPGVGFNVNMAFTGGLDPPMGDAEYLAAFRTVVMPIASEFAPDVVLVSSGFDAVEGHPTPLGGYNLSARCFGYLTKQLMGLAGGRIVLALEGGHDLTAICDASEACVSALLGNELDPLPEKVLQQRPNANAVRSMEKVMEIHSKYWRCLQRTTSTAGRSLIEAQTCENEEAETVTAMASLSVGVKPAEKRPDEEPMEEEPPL

Take `O=C(CCCSc1nc2ccccc2n1Cc1ccccc1)NO` [Compound 10a, 4-((1-benzyl-1H-benzo[d]imidazol-2-yl)thio)-N-hydroxybutanamide]: the “effect on cell index of CCHE-45, pilot experiment” value in assay [1] (100 µM (highest conc.), 72 hrs) is “lowered cell index and induced cell death”. For the same compound, the “effect on cell index (CI) of CCHE-45” value in assay [1] (100 µM, after 24 h from addition of the drug) is “reduced CI to half the maximum CI”; in assay [1] (400 µM or 200 µM, monitoring for 96 h), “quick and dramatic reduction in cell index”. The IC50 in assay [1] (96 h) was 113 µM; in assay [1], 113 ± 11.1 µM. Moreover, the “concentration with significant upregulation of acetylated α-tubulin” value in assay [2] (6.25-100 µM tested) was 25 µM. For the same compound, in assay [2] (Figure 6 legend), the “concentration from which acetylated α-tubulin is upregulated” value is recorded as at least 12.5 µM. Besides, the inhibition at 10 µM amounted to 1% at human HDAC4, 5% on human HDAC9 and 28% at human HDAC10.
